These results are taken from patent US20220040136A1, “TREATMENT OF VULVOVAGINAL DISORDERS” (University of Rochester, priority 2018, published 2022).

This test relates to C57BL/6J mice. In words: Mouse model of LPV, DHA cream (Example 4). Format: in vivo. From the text:
A total of 36 C57BL/6J mice were subjected to 6 weeks of allodynia induction using the protocol described above. Briefly, zymosan was used to induce sustained vulvar allodynia, measured by pain threshold testing. An electronic vonFrey system (MOUSEMET™, Topcat Metrology) was used to apply gradually increasing force to the vulva at the injection site, located at the midline posterior vulvar (between the vaginal opening and anus) (FIG. 7A). The hair was applied perpendicular to the vulvar surface with a gradually increasing force within a range of 0.100 g to 7.0 g (FIG. 7B). A positive response was defined as either (1) a reflexive, coordinated four extremity extension, (2) jump, or (3) immediate grooming of the vulva in response to vulvar stimulus, at which point the peak force was recorded.
During allodynia induction, mice receive weekly injections of zymosan (10 mg/ml in 10 μl saline) for a maximum of 6 injections, until a >33% reduction in pain threshold is observed for 2 consecutive weeks of testing (FIG. 7C). Pain threshold testing was performed at the same time every week, immediately prior to zymosan injection; after the first 2 weeks of injections, a determination of threshold change was performed after pain testing to determine which mice would receive additional zymosan injections. […]

For the compound `CC/C=C\C/C=C\C/C=C\C/C=C\C/C=C\C/C=C\CCC(=O)O` [DHA, docosahexaenoic acid], the “mice recovered from allodynia” value (DHA cream group (12 mice), after 6 weeks of treatment, recovery = 70% improvement over lowest pain threshold for 2 consecutive tests) is given as 9 mice. Also, the “first week at which mice began to recover” value (DHA group, week = first week of a two-week period with 70% improvement, FIG. 13) is 1 week.
